Measured values taken from PMC12588666 (Therapeutic Drug Monitoring, 2025).

Tests used:
S. aureus [1] = test: Susceptibility of intraoperative culture isolate, S. aureus (case 1); format: cell-based, Staphylococcus aureus; details: case 1 intraoperative culture
Method: (§1) Case 1: A patient (102.5 kg, creatinine clearance of 71 mL/min based on a 6-hour urine collection) developed a polymicrobial implant-associated spinal infection (IASI) after Th9-L3 spondylodesis and laminectomy at Th12. […] Surgical debridement was performed before dalbavancin therapy.
(§2) Intravenous vancomycin and ceftriaxone were initiated to treat S. aureus, P. mirabilis, and E. faecium. S. aureus was susceptible to both agents, P. mirabilis to ceftriaxone, and E. faecium to vancomycin. After 1 week, ceftriaxone was switched to oral ciprofloxacin.

P. mirabilis = test: Susceptibility of intraoperative culture isolate, P. mirabilis (case 1); format: cell-based, Proteus mirabilis; details: case 1 intraoperative culture
Method: as §1, §2

S. aureus [2] = details: in vivo; cited from earlier work
Excerpt: (§3) The Clinical and Laboratory Standards Institute has defined a tentative susceptibility breakpoint o ...

E. faecium [3] = details: Clinical and Laboratory Standards Institute; cited from earlier work
Excerpt: as §3

[4] = test system: implant-associated spinal infection (IASI); test: Clinical outcome and tolerability in patients with implant-associated spinal infection
Method: The total duration of the antimicrobial treatment was 12 weeks. Creatinine levels remained stable.
Symptoms resolved within 2.5 hours after 1-mg oral clemastine (antihistamine) and was discharged.

[5] = Dalbavancin plasma concentrations by LC-MS/MS (TDM, case 1); format: in vivo, human
Excerpt: Background: Implant-associated spinal infections (IASI) pose challenges for outpatient management due to the need for frequent intravenous antibiotic administration. […] One patient received therapeutic drug monitoring (TDM)-guided dosing, while the other was managed with fixed-interval dosing. […] Both patients successfully completed therapy without recurrence of the infection during follow-up. […] Further research is required to establish standardized therapeutic drug monitoring protocols for the management of IASI.
The second 1500 mg dose followed on day 8, with TDM on days 22 and 28.

[6] = long half-life; cited from earlier work
E. faecium [7] = test: Susceptibility of intraoperative culture isolate, E. faecium (case 1); format: cell-based, Enterococcus faecium; details: case 1 intraoperative culture
Method: as §1, §2

Compound | susceptibility of S. aureus (S. aureus [1]) | susceptibility of P. mirabilis (P. mirabilis) | trough concentration corresponding to the ƒAUC24/MIC target (S. aureus [2]) | tentative susceptibility breakpoint (E. faecium [3]) | infection recurrence at follow-up ([4]; both patients (case 1 TDM-guided three doses, case 2 fixed-interval four doses of 1500 mg)) | blood, renal, and liver tests ([4]; case 2) | adverse reaction after the final dose ([4]; case 2, 85 kg, 4 off-label 1500-mg doses every 2 weeks without TDM) | severity of reaction ([4]; case 2, possibly due to the infusion) | trough concentration before the third dalbavancin infusion ([5]; case 1, 102.5 kg, CrCl 71 mL/min, after 1500 mg doses on day 1 and day 8, single patient) | peak plasma concentration after the third dalbavancin infusion ([5]; case 1, third 1500-mg dose on day 44, single patient) | half-life [6] | susceptibility of E. faecium (E. faecium [7])
CO/N=C(\C(=O)N[C@@H]1C(=O)N2C(C(=O)O)=C(CSc3nc(=O)c(=O)[nH]n3C)CS[C@H]12)c1csc(N)n1 [ceftriaxone] | susceptible | susceptible | – | – | – | – | – | – | – | – | – | –
CN[C@H]1C(=O)N[C@@H]2Cc3ccc(cc3)Oc3cc4cc(c3O[C@@H]3O[C@H](C(=O)O)[C@@H](O)[C@H](O)[C@H]3NC(=O)CCCCCCCCC(C)C)Oc3ccc(cc3Cl)[C@@H](O)[C@@H]3NC(=O)[C@H](NC(=O)[C@@H]4NC(=O)[C@@H](NC2=O)c2cc(cc(O)c2Cl)Oc2cc1ccc2O)c1ccc(O)c(c1)-c1c(O[C@H]2O[C@H](CO)[C@@H](O)[C@H](O)[C@@H]2O)cc(O)cc1[C@@H](C(=O)NCCCN(C)C)NC3=O [dalbavancin] | – | – | ≥ 8 µg/mL | 0.25 mg/L | without infection recurrence up to 8 months after therapy | remained normal | nausea, vomited once, and had a painful, itchy, erythematous, and swollen face | moderate reaction | 10.3 mg/L | 301.8 mg/L | 147 to 258 h | –
CN[C@H](CC(C)C)C(=O)N[C@H]1C(=O)N[C@@H](CC(N)=O)C(=O)N[C@H]2C(=O)N[C@H]3C(=O)N[C@H](C(=O)N[C@H](C(=O)O)c4cc(O)cc(O)c4-c4cc3ccc4O)[C@H](O)c3ccc(c(Cl)c3)Oc3cc2cc(c3O[C@@H]2O[C@H](CO)[C@@H](O)[C@H](O)[C@H]2O[C@H]2C[C@](C)(N)[C@H](O)[C@H](C)O2)Oc2ccc(cc2Cl)[C@H]1O [vancomycin] | susceptible | – | – | – | – | – | – | – | – | – | – | susceptible
